The supplement of paper PMC11061612

Columns and labels:
Paclitaxel = compound: CC(=O)O[C@H]1C(=O)[C@@]2(C)[C@H]([C@H](OC(=O)c3ccccc3)[C@]3(O)C[C@H](OC(=O)[C@H](O)[C@@H](NC(=O)c4ccccc4)c4ccccc4)C(C)=C1C3(C)C)[C@]1(OC(C)=O)CO[C@@H]1C[C@@H]2O [Paclitaxel]; conditions: max 3 µM
How it was run: (§1)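 Following 24 hours at 37°C and 5% CO2, cancer cell lines in 1536-well plates with 7.5 μl DMEM/F12 or RPMI and 10% FBS were dosed for 72 hours, final DMSO typically being 0.2%. CellTiter-Glo 2.0 luminescence, scaled between blank-well and DMSO-well means, gave the viability readout. Dose responses were fitted to a two-parameter logistic curve with a non-linear mixed effects model, and the single-agent IC50 was derived from this fit.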

Crizotinib = compound: C[C@@H](Oc1cc(-c2cnn(C3CCNCC3)c2)cnc1N)c1c(Cl)ccc(F)c1Cl [Crizotinib]; conditions: max 10 µM
How it was run: as §1

AZD1390 = compound: CC(C)n1c(=O)n(C)c2cnc3cc(F)c(-c4ccc(OCCCN5CCCCC5)nc4)cc3c21 [AZD1390]; conditions: max 0.3 µM
How it was run: as §1

AZD2811 = compound: CCN(CCO)CCCOc1ccc2c(Nc3cc(CC(=O)Nc4cccc(F)c4)[nH]n3)ncnc2c1 [AZD2811]; conditions: max 1 µM
How it was run: as §1

AZD0156 = compound: CN(C)CCCOc1ccc(-c2ccc3ncc4c(c3c2)n(C2CCOCC2)c(=O)n4C)cn1 [AZD0156]; conditions: max 3 µM
How it was run: as §1

Selumetinib = compound: Cn1cnc2c(F)c(Nc3ccc(Br)cc3Cl)c(C(=O)NOCCO)cc21 [Selumetinib]; conditions: max 10 µM
How it was run: as §1

Prexasertib = compound: COc1cccc(OCCCN)c1-c1cc(Nc2cnc(C#N)cn2)n[nH]1 [Prexasertib]; conditions: max 1 µM
How it was run: as §1

Taselisib = compound: Cc1nc(-c2cn3c(n2)-c2ccc(-c4cnn(C(C)(C)C(N)=O)c4)cc2OCC3)n(C(C)C)n1 [Taselisib]; conditions: max 10 µM
How it was run: as §1

Venetoclax = compound: CC1(C)CCC(CN2CCN(c3ccc(C(=O)NS(=O)(=O)c4ccc(NCC5CCOCC5)c([N+](=O)[O-])c4)c(Oc4cnc5[nH]ccc5c4)c3)CC2)=C(c2ccc(Cl)cc2)C1 [Venetoclax]; conditions: max 1 µM
How it was run: as §1

AZD4320 = compound: CN(CC[C@H](CSC1=CC=CC=C1)NC2=C(C=C(C=C2)S(=O)(=O)NC(=O)C3=CC=C(C=C3)N4CCC(CC4)[C@H](C5=CC=CC=C5C6=CC=C(C=C6)Cl)O)S(=O)(=O)C(F)(F)F)CCO [AZD4320]; conditions: max 1 µM
How it was run: as §1

MK-2206 = compound: NC1(c2ccc(-c3nc4ccn5c(=O)[nH]nc5c4cc3-c3ccccc3)cc2)CCC1 [MK-2206]; conditions: max 10 µM
How it was run: as §1

Savolitinib = compound: C[C@@H](c1ccc2nccn2c1)n1nnc2ncc(-c3cnn(C)c3)nc21 [Savolitinib]; conditions: max 1 µM
How it was run: as §1

SG3199 = compound: CC1=CN2[C@@H](C1)C=NC3=CC(=C(C=C3C2=O)OC)OCCCCCOC4=C(C=C5C(=C4)N=C[C@@H]6CC(=CN6C5=O)C)OC [SG3199]; conditions: max 0.001 µM
How it was run: as §1

AZD8186 = compound: C[C@@H](Nc1cc(F)cc(F)c1)c1cc(C(=O)N(C)C)cc2c(=O)cc(N3CCOCC3)oc12 [AZD8186]; conditions: max 10 µM
How it was run: as §1

AZD5153 = compound: COc1nnc2ccc(N3CCC(c4ccc(OCCN5CCN(C)C(=O)[C@H]5C)cc4)CC3)nn12 [AZD5153]; conditions: max 1 µM
How it was run: as §1

AZD1775 = compound: C=CCn1c(=O)c2cnc(Nc3ccc(N4CCN(C)CC4)cc3)nc2n1-c1cccc(C(C)(C)O)n1 [AZD1775]; conditions: max 3 µM
How it was run: as §1

Lapatinib = compound: CS(=O)(=O)CCNCc1ccc(-c2ccc3ncnc(Nc4ccc(OCc5cccc(F)c5)c(Cl)c4)c3c2)o1 [Lapatinib]; conditions: max 10 µM
How it was run: as §1

Etoposide = compound: COc1cc([C@@H]2c3cc4c(cc3[C@@H](O[C@@H]3O[C@@H]5CO[C@@H](C)O[C@H]5[C@H](O)[C@H]3O)[C@H]3COC(=O)[C@H]23)OCO4)cc(OC)c1O [Etoposide]; conditions: max 10 µM
How it was run: as §1

[1] = compound: O=C(Nc1ccc2[nH]nc(-c3ccncc3)c2c1)[C@@H]1CCN(CC(=O)N2CCN(c3ccc(-c4ncccn4)cc3)CC2)C1; conditions: max 5 µM
How it was run: as §1

SN-38 = compound: CCc1c2c(nc3ccc(O)cc13)-c1cc3c(c(=O)n1C2)COC(=O)[C@]3(O)CC [SN-38]; conditions: max 0.3 µM
How it was run: as §1

Carboplatin = compound: C1CC(C1)(C(=O)[O-])C(=O)[O-].N.N.[Pt+2] [Carboplatin]; conditions: max 10 µM
How it was run: as §1

Trametinib = compound: CC(=O)Nc1cccc(-n2c(=O)n(C3CC3)c(=O)c3c(Nc4ccc(I)cc4F)n(C)c(=O)c(C)c32)c1 [Trametinib]; conditions: max 1 µM
How it was run: as §1

Doxorubicin = compound: COc1cccc2c1C(=O)c1c(O)c3c(c(O)c1C2=O)C[C@@](O)(C(=O)CO)C[C@@H]3O[C@H]1C[C@H](N)[C@H](O)[C@H](C)O1 [Doxorubicin]; conditions: max 1 µM
How it was run: as §1

Gemcitabine = compound: Nc1ccn([C@@H]2O[C@H](CO)[C@@H](O)C2(F)F)c(=O)n1 [Gemcitabine]; conditions: max 0.3 µM
How it was run: as §1

AZD5363 = compound: C1CN(CCC1(C(=O)N[C@@H](CCO)C2=CC=C(C=C2)Cl)N)C3=NC=NC4=C3C=CN4 [AZD5363]; conditions: max 10 µM
How it was run: as §1

5-Fluorouracil = compound: O=c1[nH]cc(F)c(=O)[nH]1 [5-Fluorouracil]; conditions: max 20 µM
How it was run: as §1

Dasatinib = compound: CC1=C(C(=CC=C1)Cl)NC(=O)C2=CN=C(S2)NC3=CC(=NC(=N3)C)N4CCN(CC4)CCO [Dasatinib]; conditions: max 2 µM
How it was run: as §1

SRA737 = compound: N#Cc1cnc(Nc2cc(NC[C@H]3CNCCO3)c(C(F)(F)F)cn2)cn1 [SRA737]; conditions: max 10 µM
How it was run: as §1

Palbociclib = compound: CC(=O)c1c(C)c2cnc(Nc3ccc(N4CCNCC4)cn3)nc2n(C2CCCC2)c1=O [Palbociclib]; conditions: max 10 µM
How it was run: as §1

Gefitinib = compound: COc1cc2ncnc(Nc3ccc(F)c(Cl)c3)c2cc1OCCCN1CCOCC1 [Gefitinib]; conditions: max 10 µM
How it was run: as §1

AZD5991 = compound: Cc1c2c(nn1C)CSCc1cc(n(C)n1)CSc1cc(c3ccccc3c1)OCCCc1c(C(=O)O)n(C)c3c-2c(Cl)ccc13 [AZD5991]; conditions: max 1 µM
How it was run: as §1

Olaparib = compound: O=C(c1cc(Cc2n[nH]c(=O)c3ccccc23)ccc1F)N1CCN(C(=O)C2CC2)CC1 [Olaparib]; conditions: max 10 µM
How it was run: as §1

Alisertib = compound: COc1cc(Nc2ncc3c(n2)-c2ccc(Cl)cc2C(c2c(F)cccc2OC)=NC3)ccc1C(=O)O [Alisertib]; conditions: max 10 µM
How it was run: as §1

AZD6738 = compound: C[C@@H]1COCCN1C2=NC(=NC(=C2)C3(CC3)[S@](=N)(=O)C)C4=C5C=CNC5=NC=C4 [AZD6738]; conditions: max 10 µM
How it was run: as §1

AZD7648 = compound: Cc1cc2ncnn2cc1Nc1ncc2c(n1)n(C1CCOCC1)c(=O)n2C [AZD7648]; conditions: max 10 µM
How it was run: as §1

Cell Line | IC50, cell viability 72 h (Paclitaxel) [nM] | IC50, cell viability 72 h (Crizotinib) [nM] | IC50, cell viability 72 h (AZD1390) [nM] | IC50, cell viability 72 h (AZD2811) [nM] | IC50, cell viability 72 h (AZD0156) [nM] | IC50, cell viability 72 h (Selumetinib) [nM] | IC50, cell viability 72 h (Prexasertib) [nM] | IC50, cell viability 72 h (Taselisib) [nM] | IC50, cell viability 72 h (Venetoclax) [nM] | IC50, cell viability 72 h (AZD4320) [nM] | IC50, cell viability 72 h (MK-2206) [nM] | IC50, cell viability 72 h (Savolitinib) [nM] | IC50, cell viability 72 h (SG3199) [nM] | IC50, cell viability 72 h (AZD8186) [nM] | IC50, cell viability 72 h (AZD5153) [nM] | IC50, cell viability 72 h (AZD1775) [nM] | IC50, cell viability 72 h (Lapatinib) [nM] | IC50, cell viability 72 h (Etoposide) [nM] | IC50, cell viability 72 h [1] [nM] | IC50, cell viability 72 h (SN-38) [nM] | IC50, cell viability 72 h (Carboplatin) [nM] | IC50, cell viability 72 h (Trametinib) [nM] | IC50, cell viability 72 h (Doxorubicin) [nM] | IC50, cell viability 72 h (Gemcitabine) [nM] | IC50, cell viability 72 h (AZD5363) [nM] | IC50, cell viability 72 h (5-Fluorouracil) [nM] | IC50, cell viability 72 h (Dasatinib) [nM] | IC50, cell viability 72 h (SRA737) [nM] | IC50, cell viability 72 h (Palbociclib) [nM] | IC50, cell viability 72 h (Gefitinib) [nM] | IC50, cell viability 72 h (AZD5991) [nM] | IC50, cell viability 72 h (Olaparib) [nM] | IC50, cell viability 72 h (Alisertib) [nM] | IC50, cell viability 72 h (AZD6738) [nM] | IC50, cell viability 72 h (AZD7648) [nM]
SK-MEL-24 (Melanoma) | 738 | > 10000 | > 300 | > 1000 | > 3000 | 2770 | 575 | 5000 | > 1000 | > 1000 | > 10000 | > 1000 | > 1 | > 10000 | > 1000 | > 3000 | > 10000 | > 10000 | 3270 | 23.9 | > 10000 | 46.3 | 701 | 193 | > 10000 | > 20000 | > 2000 | > 10000 | > 10000 | > 10000 | > 1000 | > 10000 | > 10000 | > 10000 | > 10000
OVKATE (Ovarian Carcinoma) | > 3000 | > 10000 | > 300 | > 1000 | > 3000 | > 10000 | > 1000 | > 10000 | > 1000 | > 1000 | > 10000 | > 1000 | > 1 | > 10000 | > 1000 | > 3000 | > 10000 | > 10000 | > 5000 | > 300 | > 10000 | > 1000 | > 1000 | > 300 | > 10000 | > 20000 | > 2000 | > 10000 | > 10000 | > 10000 | > 1000 | > 10000 | > 10000 | > 10000 | > 10000
